Assay results reported in US20250171461A1, “STIMULATOR OF INTERFERON GENES (STING) MODULATORS, AND COMPOSITIONS AND METHODS THEREOF” (Geode Therapeutics Inc., priority 2022, published 2025).

Molecular target: T1, human HAQ STING isoform (hSTING HAQ) (Homo sapiens, UniProt Q86WV6, G230A/H232R/R293Q/R71H)
T1 construct: THP1 cells express the naturally occurring human HAQ STING isoform (hSTING HAQ); host or cells: THP1
Assay: IFN-β mRNA level in THP1 cells (qPCR, STING agonist cellular activity)
Format: cell-based
Conditions: compound at 3.6 μM, 2 hrs, IFNβ expression normalized against GAPDH by the 2^-ΔΔCT method, DMSO = 1.0
Description: Cellular activity of STING agonists was determined by mRNA levels of IFN-β in THP1 (Otwo Biotech HTX1621) cell line. THP1 cells express the naturally occurring human HAQ STING isoform (hSTING HAQ), which responses to the activation of STING agonists.
THP1 cells were seeded into Falcon 12-well cell Culture Plate (Corning #353043) at 9×10^5 cells per well, in 1 ml complete culture medium (RPMI-1640, GIBCO #C1187500BT) containing 10% heat inactivated FBS (GIBCO #10099141C), 1% Pen-Strep (HyClone SV30010) and incubated at 37° ΔC, 5% CO2 overnight. On day 2, compound (final concentration at 3.6 μM) or DMSO (0.1%, Sigma Aldrich #8418) was added to THP1 cells and further incubated for 2 hrs min at 37° ΔC, 5% CO2. Cells were then collected for RNA extraction.
Total RNA was extracted with TRIzol reagent (Invitrogen #15596026) and […] was used to synthesize first-strand cDNA with Maxima First Strand cDNA Synthesis Kit (TAKARA #RR036A). Quantitative PCR was performed with Maxima SYBR Green qPCR Master Mix (ABI #4367659, USA). The primer sequences used were as follows: GAPDH (5′-[…]-3′, 5′-[…]-3′). INFP3 (5′-[…]-3′,5′-[…]-3′) Real-time PCR was performed on QuantStudio™ 5 Real-Time PCR System (Thermo Fisher). Relative expression levels of IFNβ gene were normalized against the level of GAPDH expression by the 2^−ΔΔCT method. Each PCR reaction was performed in triplicates.

T1 sequence (Q86WV6 whole entry R71H/G230A/H232R/R293Q, canonical isoform): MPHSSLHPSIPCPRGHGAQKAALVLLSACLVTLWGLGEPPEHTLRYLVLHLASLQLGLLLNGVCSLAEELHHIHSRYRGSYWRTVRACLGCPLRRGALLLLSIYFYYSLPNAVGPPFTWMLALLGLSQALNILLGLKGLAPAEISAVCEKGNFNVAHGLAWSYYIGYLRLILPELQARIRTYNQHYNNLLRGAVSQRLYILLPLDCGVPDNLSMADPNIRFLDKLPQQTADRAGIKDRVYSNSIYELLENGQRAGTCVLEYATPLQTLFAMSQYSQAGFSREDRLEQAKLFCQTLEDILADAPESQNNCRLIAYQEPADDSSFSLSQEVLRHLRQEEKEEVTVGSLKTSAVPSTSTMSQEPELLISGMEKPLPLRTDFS

Row | SMILES | Relative mRNA INFβ/GAPDH THP 1
1 | COc1cc(CN(Cc2cn3c4c(c(F)c(F)cc4c2=O)OCC3C)[C@H]2CCCN(c3ccc(N(C)C)nc3)C2)ccn1 (stereo partly drawn) [Compound 19, 11-[[[(3S)-1-[6-(dimethylamino)-3-pyridyl]-3-piperidyl]-[(2-methoxy-4-pyridyl)methyl]amino]methyl]-6,7-difluoro-2-methyl-4-oxa-1-azatricyclo[7.3.1.05,13]trideca-5(13),6,8,11-tetraen-10-one] | 2625.9
2 | COc1cc(CN(Cc2cn3c4c(c(F)c(F)cc4c2=O)OCC3C)[C@H]2CCCN(c3ccc(N(C)C4CC4)nc3)C2)ccn1 (stereo partly drawn) [Compound 21, 11-[[[(3S)-1-[6-[cyclopropyl(methyl)amino]-3-pyridyl]-3-piperidyl]-[(2-methoxy-4-pyridyl)methyl]amino]methyl]-6,7-difluoro-2-methyl-4-oxa-1-azatricyclo[7.3.1.0^5,13]trideca-5(13),6,8,11-tetraen-10-one] | 114.6
3 | COc1cc(CN(Cc2cn3c4c(c(F)c(F)cc4c2=O)OCC3C)[C@H]2CCCN(c3cccnc3)C2)ccn1 (stereo partly drawn) [Compound 22, 9,10-difluoro-6-((((2-methoxypyridin-4-yl)methyl)((S)-1-(pyridin-3-yl)piperidin-3-yl)amino)methyl)-3-methyl-2H-[1,4]oxazino[2,3,4-ij]quinolin-7(3H)-one] | 6463.9
4 | COc1cc(CN(Cc2cn3c4c(c(N5CC6(CCNCC6)C5)c(F)cc4c2=O)OCC3C)[C@H]2CCCN(c3ccc(N)nc3)C2)ccn1 (stereo partly drawn) [Compound 24, 6-((((S)-1-(6-aminopyridin-3-yl)piperidin-3-yl)((2-methoxypyridin-4-yl)methyl)amino)methyl)-9-fluoro-3-methyl-10-(2,7-diazaspiro[3.5]nonan-2-yl)-2H-[1,4]oxazino[2,3,4-ij]quinolin-7(3H)-one] | 437.3
5 | COc1cc(CN(Cc2cn3c4c(c(N5CCN(Cc6oc(=O)oc6C)CC5)c(F)cc4c2=O)OCC3C)[C@H]2CCCN(c3ccc(N)nc3)C2)ccn1 (stereo partly drawn) [Compound 25, 6-((((S)-1-(6-aminopyridin-3-yl)piperidin-3-yl)((2-methoxypyridin-4-yl)methyl)amino)methyl)-9-fluoro-3-methyl-10-(4-((5-methyl-2-oxo-1,3-dioxol-4-yl)methyl)piperazin-1-yl)-2H-[1,4]oxazino[2,3,4-ij]quinolin-7(3H)-one] | 604.8

Results, then the molecule that gave them:

Row | Relative mRNA INFβ/GAPDH THP 1 | SMILES
6 | 2142.1 | COc1cc(CN(Cc2cn3c4c(c(F)c(F)cc4c2=O)OCC3C)[C@H]2CCCN(c3ccc(NCC4CC4)nc3)C2)ccn1 (stereo partly drawn) [Compound 20, 11-[[[(3S)-1-[6-(cyclopropylmethylamino)-3-pyridyl]-3-piperidyl]-[(2-methoxy-4-pyridyl)methyl]amino]methyl]-6,7-difluoro-2-methyl-4-oxa-1-azatricyclo[7.3.1.0^5,13]trideca-5(13),6,8,11-tetraen-10-one]
7 | 3.5 | COc1cc(CN(Cc2cn3c4c(c(N5CCN(CNC(N)=O)CC5)c(F)cc4c2=O)OCC3C)[C@H]2CCCN(c3ccc(N)nc3)C2)ccn1 (stereo partly drawn) [Compound 26, 1-((4-(6-((((S)-1-(6-aminopyridin-3-yl)piperidin-3-yl)((2-methoxypyridin-4-yl)methyl)amino)methyl)-9-fluoro-3-methyl-7-oxo-3,7-dihydro-2H-[1,4]oxazino[2,3,4-ij]quinolin-10-yl)piperazin-1-yl)methyl)urea]
8 | 372.4 | COc1cc(CN(Cc2cn3c4c(c(N5CCOCC5)c(F)cc4c2=O)OCC3C)[C@H]2CCCN(c3ccc(N)nc3)C2)ccn1 (stereo partly drawn) [Compound 27, 6-((((S)-1-(6-aminopyridin-3-yl)piperidin-3-yl)((2-methoxypyridin-4-yl)methyl)amino)methyl)-9-fluoro-3-methyl-10-morpholino-2H-[1,4]oxazino[2,3,4-ij]quinolin-7(3H)-one]
